Experimental data as given in patent US20250171459A1, “2-METHYL-4',5'-DIHYDROSPIRO[PIPERIDINE-4,7'-THIENO[2,3-C]PYRAN] DERIVATIVES AS INHIBITORS OF APOL1 AND METHODS OF USING SAME” (Vertex Pharmaceuticals Incorporated, priority 2022, published 2025).

Target: T1, APOL1 (Homo sapiens, UniProt O14791)
T1 sequence (O14791 1-398 S342G/I384M): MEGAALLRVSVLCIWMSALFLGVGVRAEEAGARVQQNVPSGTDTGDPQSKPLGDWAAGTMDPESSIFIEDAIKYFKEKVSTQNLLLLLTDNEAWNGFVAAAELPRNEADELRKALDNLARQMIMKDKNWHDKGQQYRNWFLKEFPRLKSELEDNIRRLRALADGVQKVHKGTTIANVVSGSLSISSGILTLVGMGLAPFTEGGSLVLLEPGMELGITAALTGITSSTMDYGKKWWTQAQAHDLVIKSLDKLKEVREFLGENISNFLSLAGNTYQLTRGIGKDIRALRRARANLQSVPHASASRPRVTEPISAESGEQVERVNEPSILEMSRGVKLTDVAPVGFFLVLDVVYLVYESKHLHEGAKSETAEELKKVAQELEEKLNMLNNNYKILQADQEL
Experiment: MultiTox-Fluor Multiplex Cytotoxicity Assay in tet-inducible APOL1 T-REx-HEK293 cells (cell rescue, ratio of dead to live cells)
Format: cell-based
Conditions: tet-inducible transgenic APOL1 T-REx-HEK293 cell lines, 50 ng/mL tet, 24 hours; read-out: IP50 (i.e., IC50 for cell proliferation)
Method in brief: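 T-REx-HEK293 cells with tet-inducible APOL1 were treated with compound (10 μM top, 10-point 3-fold dilution, duplicate) plus 50 ng/mL tetracycline for 24 h at 37° C, in DMEM with 2% tet-free FBS. MultiTox-Fluor protease signals gave a dead/live ratio, normalized to no tet (100% viability) and tet alone (0%).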

SMILES | IC50 [nM]
CCc1cc2c(s1)CCO[C@@]21CCN(C[C@H]2C[C@@H](NS(=O)(=O)c3ccc4[nH]c(=O)[nH]c4c3)C2)[C@@H](C)C1 [Compound 416] | 100 to 500
CCc1cc2c(s1)CCO[C@@]21CCN(C[C@H]2C[C@@H](NS(=O)(=O)CCCO)C2)[C@@H](C)C1 [Compound 417] | 500 to 1000
CCc1cc2c(s1)CCO[C@@]21CCN(C[C@H]2C[C@H](NC(=O)OC(C)(C)C)C2)[C@@H](C)C1 [Compound 418, tert-butyl N-[3-[[(2′S,4R)-2-ethyl-2′-methyl-spiro[6,7-dihydrothieno[3,2-c]pyran-4,4′-piperidine]-1′-yl]methyl]cyclobutyl]carbamate] | 100 to 500
CCc1cc2c(s1)CCO[C@@]21CCN(C[C@H]2C[C@H](N)C2)[C@@H](C)C1 [Compound 419, 3-[[(2′S,4R)-2-ethyl-2′-methyl-spiro[6,7-dihydrothieno[3,2-c]pyran-4,4′-piperidine]-1′-yl]methyl]cyclobutanamine] | 500 to 1000
CCc1cc2c(s1)CCO[C@@]21CCN(CC2CN(C(=O)OC(C)(C)C)C2)[C@@H](C)C1 [Compound 420, tert-butyl 3-[[(2′S,4R)-2-ethyl-2′-methyl-spiro[6,7-dihydrothieno[3,2-c]pyran-4,4′-piperidine]-1′-yl]methyl]azetidine-1-carboxylate] | < 100
CCc1cc2c(s1)CCO[C@@]21CCN(CC2CNC2)[C@@H](C)C1 [Compound 421, (2′S,4R)-1′-(azetidin-3-ylmethyl)-2-ethyl-2′-methyl-spiro[6,7-dihydrothieno[3,2-c]pyran-4,4′-piperidine]] | 500 to 1000
CCc1cc2c(s1)CCO[C@@]21CCN(CC2CN(C(=O)c3nonc3N)C2)[C@@H](C)C1 [Compound 422, (4-amino-1,2,5-oxadiazol-3-yl)-[3-[[(2′S,4R)-2-ethyl-2′-methyl-spiro[6,7-dihydrothieno[3,2-c]pyran-4,4′-piperidine]-1′-yl]methyl]azetidin-1-yl]methanone] | < 100
CCc1cc2c(s1)CCO[C@@]21CCN(CC2CN(C(=O)c3ncccc3O)C2)[C@@H](C)C1 [Compound 423, [3-[[(2′S,4R)-2-ethyl-2′-methyl-spiro[6,7-dihydrothieno[3,2-c]pyran-4,4′-piperidine]-1′-yl]methyl]azetidin-1-yl]-(3-hydroxy-2-pyridyl)methanone] | < 100
CCc1cc2c(s1)CCO[C@@]21CCN(CC2CN(C(=O)OC)C2)[C@@H](C)C1 [Compound 424, methyl 3-[[(2′S,4R)-2-ethyl-2′-methyl-spiro[6,7-dihydrothieno[3,2-c]pyran-4,4′-piperidine]-1′-yl]methyl]azetidine-1-carboxylate] | 500 to 1000
CCc1cc2c(s1)CCO[C@@]21CCN(CC2CN(C(=O)c3ccon3)C2)[C@@H](C)C1 [Compound 425] | < 100
CCc1cc2c(s1)CCO[C@@]21CCN(CC2CN(C(=O)c3nonc3C)C2)[C@@H](C)C1 [Compound 426] | < 100
CCc1cc2c(s1)CCO[C@@]21CCN(CC2CN(C(=O)c3ccnn3C)C2)[C@@H](C)C1 [Compound 427] | < 100
CCc1cc2c(s1)CCO[C@@]21CCN(CC2CN(C(=O)c3cccc(CO)c3)C2)[C@@H](C)C1 [Compound 428] | < 100
CCc1cc2c(s1)CCO[C@@]21CCN(CC2CN(C(=O)c3cnn(C)c3)C2)[C@@H](C)C1 [Compound 429] | < 100
CCc1cc2c(s1)CCO[C@@]21CCN(CC2CN(C(=O)c3ccncc3)C2)[C@@H](C)C1 [Compound 430] | < 100
CCc1cc2c(s1)CCO[C@@]21CCN(CC2CN(C(=O)c3ccccc3)C2)[C@@H](C)C1 [Compound 431] | < 100
CCc1cc2c(s1)CCO[C@@]21CCN(CC2CN(C(=O)C(C)S(C)(=O)=O)C2)[C@@H](C)C1 (some centres unmarked) [Compound 432] | < 100
CCc1cc2c(s1)CCO[C@@]21CCN(CC2CN(C(=O)c3cn[nH]c3)C2)[C@@H](C)C1 [Compound 433] | < 100
CCc1cc2c(s1)CCO[C@@]21CCN(CC2CN(C(=O)CCC3CCCC3)C2)[C@@H](C)C1 [Compound 434] | < 100

SMILES | IC50 [nM]
CCc1cc2c(s1)CCO[C@@]21CCN(CC2CN(C(=O)CCCS(C)(=O)=O)C2)[C@@H](C)C1 [Compound 435] | < 100
CCc1cc2c(s1)CCO[C@@]21CCN(CC2CN(C(=O)COC)C2)[C@@H](C)C1 [Compound 436] | < 100
CCc1cc2c(s1)CCO[C@@]21CCN(CC2CN(C(=O)C3(O)CCOCC3)C2)[C@@H](C)C1 [Compound 437] | < 100
CCc1cc2c(s1)CCO[C@@]21CCN(CC2CN(C(=O)Cc3ccncc3)C2)[C@@H](C)C1 [Compound 438] | < 100
CCc1cc2c(s1)CCO[C@@]21CCN(CC2CN(C(=O)CCCOC)C2)[C@@H](C)C1 [Compound 439] | < 100
CCc1cc2c(s1)CCO[C@@]21CCN(CC2CN(C(=O)C3COCCO3)C2)[C@@H](C)C1 (some centres unmarked) [Compound 440] | < 100
CCc1cc2c(s1)CCO[C@@]21CCN(CC2CN(C(=O)Cc3ccncn3)C2)[C@@H](C)C1 [Compound 441] | < 100
CCc1cc2c(s1)CCO[C@@]21CCN(CC2CN(C(=O)COC(C)(C)C)C2)[C@@H](C)C1 [Compound 442] | < 100
CCc1cc2c(s1)CCO[C@@]21CCN(CC2CN(C(=O)C(C)(C)O)C2)[C@@H](C)C1 [Compound 443] | < 100
CCc1cc2c(s1)CCO[C@@]21CCN(CC2CN(C(=O)CC3CCS(=O)(=O)CC3)C2)[C@@H](C)C1 [Compound 444] | < 100
CCc1cc2c(s1)CCO[C@@]21CCN(CC2CN(C(=O)CN3CCS(=O)(=O)CC3)C2)[C@@H](C)C1 [Compound 445] | < 100
CCc1cc2c(s1)CCO[C@@]21CCN(CC2CN(C(=O)C3CCS(=O)(=O)N3)C2)[C@@H](C)C1 (some centres unmarked) [Compound 446] | < 100
CCc1cc2c(s1)CCO[C@@]21CCN(CC2CN(C(=O)CCO)C2)[C@@H](C)C1 [Compound 447] | 100 to 500
CCc1cc2c(s1)CCO[C@@]21CCN(CC2CN(C(=O)C3CCCCC3)C2)[C@@H](C)C1 [Compound 448] | 100 to 500
CCc1cc2c(s1)CCO[C@@]21CCN(CC2CN(C(=O)CS(C)(=O)=O)C2)[C@@H](C)C1 [Compound 449] | 100 to 500
CCc1cc2c(s1)CCO[C@@]21CCN(CC2CN(C(=O)CC3CS(=O)(=O)C3)C2)[C@@H](C)C1 [Compound 450] | 100 to 500
CCc1cc2c(s1)CCO[C@@]21CCN(CC2CN(C(=O)C3C4COCC43)C2)[C@@H](C)C1 (some centres unmarked) [Compound 451] | 100 to 500
CCc1cc2c(s1)CCO[C@@]21CCN(CC2CN(C(=O)CO)C2)[C@@H](C)C1 [Compound 452] | 100 to 500
CCc1cc2c(s1)CCO[C@@]21CCN(CC2CN(C(=O)CCS(N)(=O)=O)C2)[C@@H](C)C1 [Compound 453] | 100 to 500

SMILES | IC50 [nM]
CCc1cc2c(s1)CCO[C@@]21CCN(CC2CN(C(=O)CCS(C)(=O)=O)C2)[C@@H](C)C1 [Compound 454] | 100 to 500
CCc1cc2c(s1)CCO[C@@]21CCN(CC2CN(C(=O)Cc3cnn(C)c3)C2)[C@@H](C)C1 [Compound 455] | 100 to 500
CCc1cc2c(s1)CCO[C@@]21CCN(CC2CN(C(=O)CS(=O)(=O)c3ccccc3)C2)[C@@H](C)C1 [Compound 456] | 100 to 500
CCc1cc2c(s1)CCO[C@@]21CCN(CC2CN(C(=O)C(C)(C)C)C2)[C@@H](C)C1 [Compound 457] | 500 to 1000
CCc1cc2c(s1)CCO[C@@]21CCN(CC2CN(C(=O)c3cnc(C#N)nc3)C2)[C@@H](C)C1 [Compound 458] | 100 to 500
CCc1cc2c(s1)CCO[C@@]21CCN(CC2CN(C(=O)CS(=O)(=O)CC)C2)[C@@H](C)C1 [Compound 459] | < 100
CCc1cc2c(s1)CCO[C@@]21CCN(CC2CN(C(=O)c3c[nH]c(C(F)(F)F)n3)C2)[C@@H](C)C1 [Compound 460] | < 100
CCc1cc2c(s1)CCO[C@@]21CCN(CC2CN(C(=O)c3cc(C(F)F)[nH]n3)C2)[C@@H](C)C1 [Compound 461] | < 100
CCc1cc2c(s1)CCO[C@@]21CCN(CC2CN(C(=O)c3cc(C(F)(F)F)n[nH]3)C2)[C@@H](C)C1 [Compound 462] | < 100
CCc1cc2c(s1)CCO[C@@]21CCN(CC2CN(C(=O)c3ccc(=O)oc3)C2)[C@@H](C)C1 [Compound 463] | 100 to 500
CCc1cc2c(s1)CCO[C@@]21CCN(CC2CN(C(=O)Cn3cnnn3)C2)[C@@H](C)C1 [Compound 464] | < 100
CCc1cc2c(s1)CCO[C@@]21CCN(CC2CN(C(=O)CC3CCS(=O)(=O)C3)C2)[C@@H](C)C1 (some centres unmarked) [Compound 465] | < 100
CCc1cc2c(s1)CCO[C@@]21CCN(CC2CN(C(=O)c3ncc(OC)o3)C2)[C@@H](C)C1 [Compound 466] | < 100
CCc1cc2c(s1)CCO[C@@]21CCN(CC2CN(C(=O)[C@@H]3CSC(=O)N3)C2)[C@@H](C)C1 [Compound 467] | < 100
CCc1cc2c(s1)CCO[C@@]21CCN(CC2CN(C(=O)c3ncc[nH]3)C2)[C@@H](C)C1 [Compound 468] | < 100
CCc1cc2c(s1)CCO[C@@]21CCN(CC2CN(C(=O)c3cc[nH]n3)C2)[C@@H](C)C1 [Compound 469] | < 100
CCc1cc2c(s1)CCO[C@@]21CCN(CC2CN(C(=O)c3ncc(C)[nH]3)C2)[C@@H](C)C1 [Compound 470] | < 100
CCc1cc2c(s1)CCO[C@@]21CCN(CC2CN(C(=O)CCCc3c[nH]nn3)C2)[C@@H](C)C1 [Compound 471] | < 100
